In ChEMBL document CHEMBL5726652, “Oxazole orexin receptor antagonists” (2017):

Target: T1, Orexin receptor type 2 (Homo sapiens, UniProt O43614)
T1 sequence (O43614 whole entry): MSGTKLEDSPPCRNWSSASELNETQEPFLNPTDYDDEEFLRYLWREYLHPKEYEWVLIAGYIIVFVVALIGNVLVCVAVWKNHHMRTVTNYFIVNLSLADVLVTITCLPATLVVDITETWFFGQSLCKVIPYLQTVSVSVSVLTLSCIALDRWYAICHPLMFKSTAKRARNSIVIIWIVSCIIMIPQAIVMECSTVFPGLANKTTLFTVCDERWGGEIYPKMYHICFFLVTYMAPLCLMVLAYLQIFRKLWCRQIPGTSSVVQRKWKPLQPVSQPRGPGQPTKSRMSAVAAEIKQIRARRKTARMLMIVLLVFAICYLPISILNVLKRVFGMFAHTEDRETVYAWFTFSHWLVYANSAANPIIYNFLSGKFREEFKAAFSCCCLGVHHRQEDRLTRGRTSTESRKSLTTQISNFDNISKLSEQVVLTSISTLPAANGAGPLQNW
Experiment: FLIPR Ca2+ Flux Assay: For intracellular calcium measurements, Chinese hamster ovary (CHO) cells expressing the rat orexin-1 receptor or the human orexin-2 receptor, are grown in Iscove's modified DMEM containing 2 mM L-glutamine, […], 1% hypoxanthine-thymidine supplement, 100 U/ml penicillin, 100 μg/ml streptomycin and 10% heat-inactivated fetal calf serum (FCS). The cells are seeded at 20,000 cells/well into Becton-Dickinson black 384-well clear bottom sterile plates coated with poly-D-lysine. All reagents were from GIBCO-Invitrogen Corp. The seeded plates are incubated overnight at 37° C. and 5% CO2. Ala-6,12 human orexin-A as the agonist is prepared as a 1 mM stock solution in 1% bovine serum albumin (BSA) and diluted in assay buffer (HBSS containing 20 mM HEPES, 0.1% BSA and 2.5 mM probenecid, pH7.4) for use in the assay at a final concentration of 70 pM. Test compounds are prepared as 10 mM stock solution in DMSO, then diluted in 384-well plates, first in DMSO, then assay buffer. On the day of the assay, cells are washed 3 times with 100 μl assay buffer and then incubated for 60 min (37° C., 5% CO2) in 60 μl assay buffer containing 1 μM Fluo-4AM ester, 0.02% pluronic acid, and 1% BSA. The dye loading solution is then aspirated and cells are washed 3 times with 100 μl assay buffer. 30 μl of that same buffer is left in each well. […]
Format: cell-based

Row | Structure (SMILES) | IC50 [nM]
1 | Cc1oc([C@@H]2CC[C@@H](C)N(C(=O)c3cscc3-c3ncccn3)C2)nc1C(C)(C)O | 56
2 | COC(=O)Cc1nc([C@@H]2CC[C@@H](C)N(C(=O)c3ccccc3-n3nccn3)C2)oc1-c1ccccc1 | 33
